Data reported in patent US20220220106A1, “QUINOLINE COMPOUNDS AND PHARMACEUTICAL COMPOSITIONS AND USES THEREOF” (Academy of Military Medical Sciences, priority 2019, published 2022).
Read-outs that look alike come from different tables or passages of the source.

Columns and labels:
[1] = test system: Enterovirus 71 (EV71) H strain; assay: In vitro anti-EV71 activity (antiviral activity in RD cells, CellTiter-Glo); assay type: cell-based; details: for IC50: EV71 H strain, RD cells, 4 days, CellTiter-Glo, read-out: IC50; for in vitro anti-EV71 activity, in words: EV71, RD cells
Method: According to the mass and molecular weight of the compound to be tested, the compound to be tested was dissolved to 100 mM (mmol/L) with DMSO.
Detection of Antiviral Activity:
(1) First, the compound to be tested was diluted to 800 μM with cell maintenance solution (DMEM+2% FBS, Gibco, catalog numbers: 11995-065, 1600-044), and three-fold gradient dilution was performed to prepare 10 concentrations in total. The diluted compound was added to a 96-well plate with white wall and transparent bottom, 50 μl per well. To both the cell control group and the virus control group, an equal volume of the cell maintenance solution was added.
(2) EV71 virus (purchased from ATCC) was taken out from the −80° C. refrigerator and equilibrated to room temperature.
(3) The virus seed was diluted with a virus growth solution (DMEM+2% FBS, Gibco, catalog numbers: 11995-065, 1600-044) to 100TCID50, the diluted virus seed was added to the 96-well plate of (1), with […] per well. The same volume of the virus growth solution was added to the cell control group.
(4) RD cells (purchased from ATCC) were inoculated at a concentration of 1*10^5/mL into the 96-well plate of (1), with 100 μL per well, to reach a final volume of 200 μL per well. The final concentration of drug was 0.25 times the initial concentration.
(5) RD cells were cultured at 37° C. for 4 days for testing.
(6) The Buffer of CellTiter-Glo® luminescent cell viability assay reagent (Promega) was mixed with the substrate in the dark to prepare a working solution.
(§1) (7) The culture medium in the plate was discarded, the plate was dried by patting, 100 μL of the detection reagent was added to each well, and the 96-well plate was shaken on an orbital shaker for 4 minutes to induce cell lysis. After keeping in the dark and subjecting to signal stabilization for 15 minutes, the chemiluminescence unit was detected by using MD5 microplate reader (Molecular Devices), and the plate reading program was performed according to the CellTiter-Glo preset program.
The inhibition rate-concentration curve was fitted to S-curve by using origin8.0 software to calculate the IC50 value of the compound to be tested.
(§2) The formula for calculating the inhibition rates of drug at different dilution degrees was as follows: inhibition rate (%)=(average value of cell control group−value of experimental group)/(average value of cell control group−minimum value of experimental group)*100
(§3) The inhibition rate-concentration curve was fitted to S-curve by using origin8.0 software, and the IC50 value of the compound to be tested was calculated. The same method was used to calculate the TD50 value, and the selection index SI=TD50/IC50 was calculated according to the half maximal inhibitory concentration IC50 and the median toxic dose TD50.

RD cells = assay: Detection of cytotoxicity in RD cells (CellTiter-Glo); assay type: cell-based; details: 4 days, CellTiter-Glo, median toxic dose
Method: Detection of Cytotoxicity:
(1) The compound to be tested was diluted to a concentration of 400 μM with the cell maintenance solution, and 3-fold gradient dilution was carried out to obtain 10 concentrations in total.
(2) The diluted compound was added to a 96-well plate with white wall and transparent bottom, with 100 μL per well. An equal volume of the cell maintenance solution was added to the cell control group.
(3) RD cells were inoculated into the above 96-well plate at a concentration of 1*10^5/mL, with 100 μL per well, to reach a final volume of 200 μL per well, and the final concentration of drug was 0.5 times the pretreatment concentration.
(4) The RD cells were cultured at 37° C. for 4 days for testing.
(5) The Buffer of CellTiter-Glo® luminescent cell viability assay reagent was mixed with the substrate in the dark to prepare a working solution.
as §1, with “(6)” for “(7)”, “detected,” for “detected by using MD5 microplate reader (Molecular Devices),”
as §2, §3

Row | Compound | IC50 ([1]; Enterovirus A, 96 h) | melting point | TD50 (RD cells) | in vitro anti-EV71 activity, in words [1] | IC50 [1]
1 | CC(=O)/C=C/c1cnc2ccc(-c3ccc(CC(C)C)cc3)cc2c1Nc1cccc(C(F)(F)F)c1 [HTL-3-41, (E)-6-(4-isobutyl)phenyl-4-[3-(trifluoromethyl)phenyl]aminoquinoline-3-butenone] | > 200 µM | 187 to 191 °C | 0.99 ± 0.24 µM |  | 
2 | CC(=O)/C=C/c1cnc2ccc(-c3ccc(C(F)(F)F)cc3)cc2c1Nc1cccc(C(F)(F)F)c1 [HTL-3-18, (E)-6-[4-(trifluoromethyl)phenyl]-4-[3-(trifluoromethyl)phenyl]aminoquinoline-3-butenone] | > 200 µM | 189 to 191 °C | >200 µM |  | 
3 | CC(=O)/C=C/c1cnc2ccc(-c3ccncc3)cc2c1Nc1cccc(C(F)(F)F)c1 [HTL-3-04, (E)-6-(4-pyridyl)-4-[3-(trifluoromethyl)phenyl]aminoquinoline-3-butenone] | > 200 µM | 192 to 195 °C | >200 µM |  | 
4 | CC(=O)/C=C/c1cnc2ccc(-c3ccc(C(N)=O)cc3)cc2c1Nc1cccc(C(F)(F)F)c1 [HTL-3-45, (E)-6-(4-carbamoyl)phenyl-4-[3-(trifluoromethyl)phenyl]aminoquinoline-3-butenone] | > 200 µM | 211 to 214 °C | 2.42 ± 0.06 µM |  | 
5 | NC(=O)/C=C/c1ccc2ncc3ccc(=O)n(-c4cccc(C(F)(F)F)c4)c3c2c1 [HTL-7-24, (E)-9-(2-carbamoyl-vinyl)-2-oxo-1-[3-(trifluoromethyl)phenyl]-1,2-dihydrobenzo[h][1,6]naphthyridine] | 0.09 ± 0.01 µM | 307 to 308 °C | 0.15 ± 0.01 µM | strong inhibitory activity | 
6 | N#Cc1ccc(Nc2ccc3ncc4ccc(=O)n(-c5cccc(C(F)(F)F)c5)c4c3c2)cc1 [HTL-6-22, 9-(4-cyanophenyl)imino-2-oxo-1-[3-(trifluoromethyl)phenyl]-1,2-dihydrobenzo[h][1,6]naphthyridine] | > 200 µM | 259 to 260 °C | 6.95 ± 0.86 µM |  | 
7 | O=c1oc2cnc3ccc(-c4ccc(Cl)cc4)cc3c2n1-c1cccc(C(F)(F)F)c1 [HTL-5-33, 8-(4-chloro)phenyl-1-[3-(trifluoromethyl)phenyl]oxazolo[5,4-c]quinolin-2(1H)-one] | > 200 µM | 283 to 286 °C | >200 µM |  | 
8 | O=c1oc2cnc3ccc(-c4cccs4)cc3c2n1-c1cccc(C(F)(F)F)c1 [HTL-5-26, 8-(2-thienyl)-1-[3-(trifluoromethyl)phenyl]oxazolo[5,4-c]quinolin-2(1H)-one] | > 200 µM | 272 to 274 °C | >200 µM |  | 
9 | COc1ccc(Nc2ccc3ncc4ccc(=O)n(-c5cccc(C(F)(F)F)c5)c4c3c2)cc1 [HTL-6-26, 9-(4-methoxyphenyl)imino-2-oxo-1-[3-(trifluoromethyl)phenyl]-1,2-dihydrobenzo[h][1,6]naphthyridine] | > 200 µM | 138 to 140 °C | >200 µM |  | 
10 | CC(=O)/C=C/c1cnc2ccc(-c3ccc(C#N)cc3)cc2c1Nc1cccc(C(F)(F)F)c1 [HTL-3-15, (E)-6-(4-cyano)phenyl-4-[3-(trifluoromethyl)phenyl]aminoquinoline-3-butenone] | > 200 µM | 173 to 174 °C | >200 µM |  | 
11 | CC(=O)/C=C/c1cnc2ccc(-c3ccoc3)cc2c1Nc1cccc(C(F)(F)F)c1 [HTL-3-22, (E)-6-(3-furyl)-4-[3-(trifluoromethyl)phenyl]aminoquinoline-3-butenone] | > 200 µM | 151 to 154 °C | 1.55 ± 1.03 µM |  | 
12 | Nc1cncc(Nc2ccc3ncc4ccc(=O)n(-c5cccc(C(F)(F)F)c5)c4c3c2)c1 [HTL-6-29, 9-[3-(5-aminopyridyl)]imino-2-oxo-1-[3-(trifluoromethyl)phenyl]-1,2-dihydrobenzo[h][1,6]naphthyridine] | 1.75 ± 0.41 µM | 156 to 158 °C | 28.65 ± 1.67 µM | moderate activity | 
13 | CC(=O)/C=C/c1cnc2ccc(-c3ccc(F)cc3)cc2c1Nc1cccc(C(F)(F)F)c1 [HTL-3-12, (E)-6-(4-fluoro)phenyl-4-[3-(trifluoromethyl)phenyl]aminoquinoline-3-butenone] | > 200 µM | 167 to 169 °C | >200 µM |  | 
14 | CCCCC(=O)Nc1ccc(-c2ccc3ncc4oc(=O)n(-c5cccc(C(F)(F)F)c5)c4c3c2)cn1 [WSX-1-24, 8-[3-(6-valerylamino)pyridyl]-1-[3-(trifluoromethyl)phenyl]oxazolo[5,4-c]quinolin-2(1H)-one] | > 200 µM | 231 to 232 °C | 4.27 ± 2.83 µM |  | 
15 | CC(C)c1ccc(-c2ccc3ncc4oc(=O)n(-c5cccc(C(F)(F)F)c5)c4c3c2)cc1 [HTL-5-35, 8-(4-isopropyl)phenyl-1-[3-(trifluoromethyl)phenyl]oxazolo[5,4-c]quinolin-2(1H)-one] | > 200 µM | 219 to 220 °C | 69.36 ± 0.28 µM |  | 
16 | CC(=O)/C=C/c1cnc2ccc(-c3cccc(Cl)c3)cc2c1Nc1cccc(C(F)(F)F)c1 [HTL-3-36, (E)-6-(3-chloro)phenyl-4-[3-(trifluoromethyl)phenyl]aminoquinoline-3-butenone] | > 200 µM | 182 to 183 °C | 4.65 ± 3.50 µM |  | 
17 | O=c1ccc2cnc3ccc(Nc4ccc(F)cc4)cc3c2n1-c1cccc(C(F)(F)F)c1 [HTL-6-23, 9-(4-fluorophenyl)imino-2-oxo-1-[3-(trifluoromethyl)phenyl]-1,2-dihydrobenzo[h][1,6]naphthyridine] | > 200 µM | 176 to 179 °C | 7.22 ± 0.47 µM |  | 
18 | CC(=O)/C=C/c1cnc2ccc(-c3ccc(F)c(C)c3)cc2c1Nc1cccc(C(F)(F)F)c1 [HTL-3-32, (E)-6-(4-fluoro-3-methyl)phenyl-4-[3-(trifluoromethyl)phenyl]aminoquinoline-3-butenone] | > 200 µM | 209 to 210 °C | 1.52 ± 0.87 µM |  | 
19 | Nc1cncc(Nc2ccc3ncc4ccc(=O)n(-c5cccc(C(F)(F)F)c5)c4c3c2)n1 [HTL-6-28, 9-[2-(6-aminopyrazinyl)]imino-2-oxo-1-[3-(trifluoromethyl)phenyl]-1,2-dihydrobenzo[h][1,6]naphthyridine] | 3.7 ± 0.03 µM | 192 to 194 °C | 8.67 ± 0.97 µM | moderate activity | 
20 | N#Cc1cncc(-c2ccc3ncc4oc(=O)n(-c5cccc(C(F)(F)F)c5)c4c3c2)c1 [HTL-5-36, 8-[3-(5-cyano)pyridyl]-1-[3-(trifluoromethyl)phenyl]oxazolo[5,4-c]quinolin-2(1H)-one] | > 200 µM | 262 to 263 °C | 13.41 ± 0.18 µM |  | 
21 | (E)-6-[3-(N-6-benzyloxyamido)pyridyl]-4-[3-(trifluoromethyl)phenyl]aminoquinoline-3-butenone [HTL-7-22] |  |  | 9.4 ± 8.0 µM |  | > 200 µM
22 | O=c1ccc2cnc3ccc(Nc4ccc(C(F)(F)F)cc4)cc3c2n1-c1cccc(C(F)(F)F)c1 [HTL-6-16, 9-[4-(trifluoromethyl)phenyl]imino-2-oxo-1-[3-(trifluoromethyl)phenyl]-1,2-dihydrobenzo[h][1,6]naphthyridine] | > 200 µM |  | 7.06 ± 0.23 µM |  | 
